Experimental data reported in patent publication US11154529B2, “Phosphaplatin liquid formulations” (Phosplatin Therapeutics Inc., priority 2016, dated 2021).

Assay: Ready-to-use formulation stability at 2-8° C., 5 mg/mL (R,R)-pyrodach-2 in 10 mM Potassium Phosphate Buffer at pH 7.4, 10 mL vials
Format: physicochemical
Experimental: A scalable and commercially viable process for the manufacture of a ready-to-use formulation of (R,R)-pyrodach-2 in 10 mM buffer adjusted to a pH of 7.0-7.5 comprises the steps of: a) preparing a 10 mM aqueous solution of buffer; b) adding sufficient hydroxide base to effect neutralization of the added (R,R)-pyrodach-2 to reach a pH of about 7; c) adding (R,R)-pyrodach-2 and allowing it to dissolve; d) if necessary adding additional hydroxide to adjust the pH into a range of about 7.0-7.5; and e) filtering the solution under sterile conditions, filling the solution into glass vials, and covering it with a stopper and/or a cap. Stability data on two large batches of 5 mg/mL (R,R)-pyrodach-2 in 10 mM potassium phosphate buffer were generated. One such batch at pH=7.2 was evaluated at both 25° C./60% RH and refrigerated (2-8° C.) conditions, with data summarized in Table 4 and Table 5, respectively. […] Similar observations have been made for the ready-to-use liquid formulation at pH7.4, as illustrated in Table 6 and Table 7.
• Transfer 4564.6 mg±0.5 mg of potassium phosphate dibasic, trihydrate to a 2-L volumetric flask. • Fill flask to approximately 75% volume with water, swirl as needed to dissolve all solids. • Volumetrically transfer 32.0 mL of 1N KOH to flask. • Dilute flask to volume with water and mix well. • Record pH of final solution. This is the diluent. • Transfer 7653.1 mg±0.5 mg of (R,R)-pyrodach-2 to a compounding vessel. • Transfer 1500 mL of the diluent to the vessel and stir to dissolve solids. • Record pH of final solution. • Pass entire solution through a 0.22 μm sterile filter membrane into a sterile collection vessel. • Calculate (R,R)-pyrodach-2 solution concentration
To a […] glass beaker equipped with mechanical mixer was add 24645.5 g of sterile water for injection. With agitation 47.03 gm of dibasic potassium phosphate USP was added and the solids allowed to dissolve. To the stirred solution was added 253.8 gm of 1.00 N potassium hydroxide. Sterile water for injection USP (900.0 gm) was used as a rinse to facilitate both additions. With vigorous agitation, (R,R)-pyrodach-2 (201.87 gm) was slowly added and agitation continued until all of the solids dissolved. Sterile water for injection USP (900.0 gm) was used as a rinse to facilitate the addition. The pH was determined to be 6.7. A total of 85 mL of 1.00 N potassium hydroxide was added in 5.0 mL aliquots to adjust the pH to 7.3. The solution was sterile filtered through 0.22μ Millipore Millipack filter and aseptically filled, 10 ml top a vial in 10 mL in 10 cc Wheaton clear molded vails, stoppered with a 20 mm stopper and crimp seal capped.

O=P1(O)OP(=O)(O)[O][Pt]2([NH][C@@H]3CCCC[C@H]3[NH]2)[O]1 (stereo partly drawn) [(R,R)-pyrodach-2, (R,R)-trans-1,2-cyclohexanediamine-(dihydrogenpyrophosphato)platinum(II)]
(DACH) Pt-diaquo (~RRT 0.3) (1 Month): 0.15% | (DACH) Pt-monoaquo (~RRT 0.7) (1 Month): 1.04% | Assay (Potency) (1 Month): 98.7% | PT-112 Dimer (~RRT 4.0) (1 Month): 0.33% | RRT 0.50 (1 Month): 0.06% | RRT 0.56 (1 Month): 0.10% | RRT 0.68 (1 Month): 0.19% | RRT 0.86 (1 Month): 0.05% | RRT 3.1-3.2 (1 Month): 0.13% | Total Related Substances (1 Month): 2% | pH (1 Month): 7.4 | (DACH) Pt-diaquo (~RRT 0.3) (3 Month): 0.14% | (DACH) Pt-monoaquo (~RRT 0.7) (3 Month): 0.92% | Assay (Potency) (3 Month): 99.7% | PT-112 Dimer (~RRT 4.0) (3 Month): 0.37% | RRT 0.50 (3 Month): 0.06% | RRT 0.56 (3 Month): 0.12% | RRT 0.68 (3 Month): 0.11% | RRT 3.1-3.2 (3 Month): 0.25% | Total Related Substances (3 Month): 2% | pH (3 Month): 7.4 | (DACH) Pt-diaquo (~RRT 0.3) (6 Month): 0.17% | (DACH) Pt-monoaquo (~RRT 0.7) (6 Month): 0.28% | Assay (Potency) (6 Month): 98.2% | PT-112 Dimer (~RRT 4.0) (6 Month): 0.36% | RRT 0.46 (6 Month): 0.06% | RRT 0.50 (6 Month): 0.18% | RRT 0.56 (6 Month): 0.06% | RRT 0.68 (6 Month): 0.16% | RRT 0.86 (6 Month): 0.05% | RRT 3.1-3.2 (6 Month): 0.38% | Total Related Substances (6 Month): 2% | pH (6 Month): 7.4 | Particulate Matter (Light Obscuration) (6 Month, first value): 83 particles particles per container | Particulate Matter (Light Obscuration) (6 Month, second value): 1 particles particles per container | (DACH) Pt-diaquo (~RRT 0.3) (9 Month): 0.14% | (DACH) Pt-monoaquo (~RRT 0.7) (9 Month): 0.81% | Assay (Potency) (9 Month): 100.2% | PT-112 Dimer (~RRT 4.0) (9 Month): 0.33% | RRT 0.46 (9 Month): 0.05% | RRT 0.50 (9 Month): 0.18% | RRT 0.56 (9 Month): 0.07% | RRT 0.68 (9 Month): 0.08% | RRT 0.86 (9 Month): 0.05% | RRT 3.1-3.2 (9 Month): 0.39% | RRT 3.58 (9 Month): 0.07% | Total Related Substances (9 Month): 2% | pH (9 Month): 7.4 | (DACH) Pt-diaquo (~RRT 0.3) (12 Month): 0.12% | (DACH) Pt-monoaquo (~RRT 0.7) (12 Month): 0.96% | Assay (Potency) (12 Month): 98.7% | PT-112 Dimer (~RRT 4.0) (12 Month): 0.34% | RRT 0.50 (12 Month): 0.15% | RRT 0.56 (12 Month): 0.16% | RRT 0.68 (12 Month): 0.11% | RRT 0.86 (12 Month): 0.05% | RRT 3.1-3.2 (12 Month): 0.48% | Total Related Substances (12 Month): 2% | pH (12 Month): 7.4 | Particulate Matter (Light Obscuration) (12 Month, first value): 124 particles per container | Particulate Matter (Light Obscuration) (12 Month, second value): 6 particles particles per container | (DACH) Pt-diaquo (~RRT 0.3) (15 Month): 0.14% | (DACH) Pt-monoaquo (~RRT 0.7) (15 Month): 0.94% | Assay (Potency) (15 Month): 98.0% | PT-112 Dimer (~RRT 4.0) (15 Month): 0.34% | RRT 0.50 (15 Month): 0.16% | RRT 0.56 (15 Month): 0.17% | RRT 0.68 (15 Month): 0.12% | RRT 0.86 (15 Month): 0.06% | RRT 3.1-3.2 (15 Month): 0.59% | RRT 3.58 (15 Month): 0.07% | Total Related Substances (15 Month): 3% | pH (15 Month): 7.4 | (DACH) Pt-diaquo (~RRT 0.3) (18 Month): 0.13% | (DACH) Pt-monoaquo (~RRT 0.7) (18 Month): 0.76% | Assay (Potency) (18 Month): 97.5% | PT-112 Dimer (~RRT 4.0) (18 Month): 0.33% | RRT 0.46 (18 Month): 0.09% | RRT 0.50 (18 Month): 0.26% | RRT 0.56 (18 Month): 0.06% | RRT 0.68 (18 Month): 0.08% | RRT 0.86 (18 Month): 0.05% | RRT 3.1-3.2 (18 Month): 0.58% | RRT 3.58 (18 Month): 0.10% | Total Related Substances (18 Month): 2% | pH (18 Month): 7.4 | (DACH) Pt-diaquo (~RRT 0.3) (21 Month): 0.12% | (DACH) Pt-monoaquo (~RRT 0.7) (21 Month): 1.07% | Assay (Potency) (21 Month): 97.4% | PT-112 Dimer (~RRT 4.0) (21 Month): 0.35% | RRT 0.46 (21 Month): 0.07% | RRT 0.50 (21 Month): 0.23% | RRT 0.56 (21 Month): 0.12% | RRT 0.68 (21 Month): 0.14% | RRT 0.86 (21 Month): 0.05% | RRT 3.1-3.2 (21 Month): 0.67% | RRT 3.58 (21 Month): 0.10% | Total Related Substances (21 Month): 3% | pH (21 Month): 7.4 | (DACH) Pt-diaquo (~RRT 0.3) (24 Month): 0.11% | (DACH) Pt-monoaquo (~RRT 0.7) (24 Month): 0.93% | Assay (Potency) (24 Month): 96.5% | PT-112 Dimer (~RRT 4.0) (24 Month): 0.33% | RRT 0.46 (24 Month): 0.08% | RRT 0.50 (24 Month): 0.25% | RRT 0.56 (24 Month): 0.12% | RRT 0.68 (24 Month): 0.11% | RRT 0.86 (24 Month): 0.06% | RRT 3.1-3.2 (24 Month): 0.65% | RRT 3.58 (24 Month): 0.14% | Total Related Substances (24 Month): 3% | pH (24 Month): 7.4 | (DACH) Pt-diaquo (~RRT 0.3) (Initial): 0.16% | (DACH) Pt-monoaquo (~RRT 0.7) (Initial): 0.84% | Assay (Potency) (Initial): 98.1% | PT-112 Dimer (~RRT 4.0) (Initial): 0.34% | RRT 0.50 (Initial): 0.06% | RRT 0.56 (Initial): 0.08% | RRT 0.68 (Initial): 0.09% | RRT 3.1-3.2 (Initial): 0.11% | Total Related Substances (Initial): 2% | pH (Initial): 7.4 | Particulate Matter (Light Obscuration) (Initial, first value): 30 particles particles per container | Particulate Matter (Light Obscuration) (Initial, second value): 11 particles particles per container
